Measurements reported in patent US20210205329A1 (The University of North Carolina at Chapel Hill, priority 2018, published 2021).
Where “and” joins values, the source holds several entries; their conditions need not be identical. Equal entries are not always repeated.

Experiments:
[1] = system: RAW264.7 cells; experiment: Non-activated RAW264.7 cells in the absence of LPS (immunoblotting); type: cell-based, mouse; settings: 1 μM, 24 hrs
Description: FIGS. 3A and 3B depict neurosteroids targeting the activated TLR4 signal by inhibiting TLR4/MD-2 binding. (FIG. 3A) 3α,5α-THP and pregnenolone specifically target the activated TLR4 signal. RAW264.7 cells untreated (CTL) or treated with 3α,5α-THP (THP; 1 μM) or pregnenolone (Preg; 1 μM) were harvested after 24 hrs. […] (FIG. 3B) Neurosteroids inhibit TLR4 signal activation in RAW264.7 ceils by blocking TLR4/MD-2 binding. RAW246.7 cells were treated with IPS (1 μg/ml) without or with 3α,5α-THP (THP; 1.0 μM) or pregnenolone (Preg; 1.0 μM) and protein extracts collected at 24 hrs post-treatment were immunoprecipitated (IP) with antibody to TLR4 or TLR2. The precipitates were immunoblotted (IB) with MD-2 antibody. Normal IgG was used as control. MD-2 co-precipitated with TLR4, but not normal IgG. […] HMGB1 co-precipitated with both TLR4 and TLR2 and its levels were not altered by the neurosteroids.
Immunoblotting. […] The total protein was determined by the bicinchoninic acid assay (BCA, Thermo Fisher Scientific, Waltham, Mass., USA, Cat. #23228 and Cat. #1859078). […] Quantitation was by densitometric scanning with a Bio-Rad GS-700 imaging densitometer. […] Each densitometric measurement was divided by the corresponding β-Actin densitometric measurement and the results [n=5/group] are expressed as the mean β-Actin-adjusted densitometric units±SEM. […]

[2] = system: innately activated TLR4 signal in P rat VTA; experiment: TLR4 signaling in P rat VTA after systemic neurosteroid (immunoblot, MCP-1 ELISA); type: in vivo; settings: 45 minutes
Description: Immunoblotting for whole VTA lysates was done as previously described (Carlson et al, 2013). Briefly, VTA micropunches (1 mm thick) were lysed with CelLytic MT (dialyzable mild detergent, bicine, and 150 mM NaCl; Sigma-Aldrich) and protease and phosphatase inhibitor cocktail according to the manufacturer's instructions. Total protein was determined by the BCA assay. The proteins (10 μg/lane) were resolved by NuPAGE™ 4-12% Bis-Tris Midi Protein Gel (Thermo Fisher, Waltham, Mass.) electrophoresis and transferred using the iBlot 2 Dry Blotting System (Thermo Fisher, Waltham, Mass.). Blots were then exposed to an antibody for β-actin for normalization. Proteins were detected with enhanced chemilumenescence (GE Healthcare, Amersham, UK). Membranes were exposed to film under non-saturating conditions. Densitometric analysis was conducted using NIH Image 1.57.
Animals. Selectively bred, but alcohol naïve Alcohol-preferring (P) rats (male, 3-4 months old; 250-550 g) (n=7-9/group) were obtained from the Alcohol Research Center, Indiana University School of Medicine, Animals were double housed in Plexiglas cages containing corn cob bedding and food and water was available ad libitum. The colony room was maintained on a normal 12 hr light-dark cycle (light onset at 0700 hr). Procedures followed National Institutes of Health Guidelines under UNC institutional Animal Care and Use Committee approved protocols at University of North Carolina School of Medicine. Rats were habituated to handling for 7 days prior to administration of 3α,5α-THP (15 mg/kg, IP), pregnenolone (75 mg/kg, IP), 3α,5α-THDOC (15 mg/kg, IP), or vehicle (45% w/v 2-hydroxypropyl-p-cyclodextrin) and returned to their home cage. Rats were sacrificed after 45 minutes and the brain was removed and frozen at −80° C. until VTA micropunches were collected from 1 mm cryostat brain sections. This time point was selected because 3α,5α-THP is rapidly metabolized in vivo (Purdy et al, 1990), but has behavioral and pharmacological activity at this time point (Crawley et al, 1986).
ELISA. Brain tissue micropunches were lysed with Cellyte MT and the extracts were assayed for protein content by the BCA procedure (Pierce) and for MCP-1 using the rat MCP-1 ELISA kit (Raybiotech—ERC-MCP-1-CL; Norcross, Ga., USA) or for fracktalkine using the rat fractalkine ELISA kit (Raybiotech—ERC-CX3CL1-CL; Norcross, Ga., USA) as per manufacturer's instructions.
Since the neurosteroids inhibited the TLR4 activation signal in cultured macrophage cells, experiments were conducted to determine whether this also occurs in the brain. Selectively bred P rats that have an innately activated TLR4 signal in the VTA (Liu J, et al. (2011). Proc Natl Acad Sci USA 108(11): 4465-4470), were administered 3α,5α-THP (15 mg/kg, IP) or pregnenolone (75 mg/kg, IP), sacrificed after 45 minutes and examined for TLR4 signaling using parallel measures. […] 3α,5α-THP administration reduced the levels of MCP-1 by 20±9% (p<0.05), TRAF6 by 19±3% (p<0.0001), and CRF by 28±9% (p<0.01), with no effect on TLR4 protein expression (FIG. 4A). Pregnenolone administration had no effect on TRAF6, CRF, or TLR4.

SMILES | expression of pTAK1, TRAF6, and MCP1 in non-activated cells [1] | effect on TLR4 protein expression in VTA ([2]; 15 mg/kg IP, P rats) | reduction of CRF levels in VTA ([2]; 15 mg/kg IP, male P rats) | reduction of TRAF6 levels in VTA ([2]; 15 mg/kg IP, male P rats) | reduction of MCP-1 levels in VTA ([2]; 15 mg/kg IP, male P rats, ELISA) | effect on CRF in VTA ([2]; 75 mg/kg IP, P rats) | effect on TLR4 in VTA ([2]; 75 mg/kg IP, P rats) | effect on TRAF6 in VTA ([2]; 75 mg/kg IP, P rats)
CC(=O)[C@H]1CC[C@H]2[C@@H]3CC[C@H]4C[C@H](O)CC[C@]4(C)[C@H]3CC[C@]12C [3α,5α-THP, (3α,5α)3-hydroxypregnan-20-one] | failed to inhibit | no effect | 28±9% and ~30% | 19±3% and ~20% | 20±9% and ~20% |  |  | 
CC(=O)[C@H]1CC[C@H]2[C@@H]3CC=C4C[C@@H](O)CC[C@]4(C)[C@H]3CC[C@]12C [pregnenolone] | failed to inhibit |  |  |  |  | no effect | no effect | no effect
